The target in this experiment is T1, LTK (TYK1) (Homo sapiens, UniProt P29376).
T1 construct: purchased Thermo Fisher Scientific (Life Technologies) SelectScreen
Description: SelectScreen Z'LYTE. The class given is biochemical. The procedure, abridged:
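Percent values come from Thermo SelectScreen profiling of NU5455, combining activity and binding assays. CSF1R was run in Z'LYTE format at Km app ATP, and CAMK1 in Adapta format with ATP listed at 10.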

As a reminder, the inhibition is the relative decrease from the control value, in per cent.

T1 sequence (P29376 17-864): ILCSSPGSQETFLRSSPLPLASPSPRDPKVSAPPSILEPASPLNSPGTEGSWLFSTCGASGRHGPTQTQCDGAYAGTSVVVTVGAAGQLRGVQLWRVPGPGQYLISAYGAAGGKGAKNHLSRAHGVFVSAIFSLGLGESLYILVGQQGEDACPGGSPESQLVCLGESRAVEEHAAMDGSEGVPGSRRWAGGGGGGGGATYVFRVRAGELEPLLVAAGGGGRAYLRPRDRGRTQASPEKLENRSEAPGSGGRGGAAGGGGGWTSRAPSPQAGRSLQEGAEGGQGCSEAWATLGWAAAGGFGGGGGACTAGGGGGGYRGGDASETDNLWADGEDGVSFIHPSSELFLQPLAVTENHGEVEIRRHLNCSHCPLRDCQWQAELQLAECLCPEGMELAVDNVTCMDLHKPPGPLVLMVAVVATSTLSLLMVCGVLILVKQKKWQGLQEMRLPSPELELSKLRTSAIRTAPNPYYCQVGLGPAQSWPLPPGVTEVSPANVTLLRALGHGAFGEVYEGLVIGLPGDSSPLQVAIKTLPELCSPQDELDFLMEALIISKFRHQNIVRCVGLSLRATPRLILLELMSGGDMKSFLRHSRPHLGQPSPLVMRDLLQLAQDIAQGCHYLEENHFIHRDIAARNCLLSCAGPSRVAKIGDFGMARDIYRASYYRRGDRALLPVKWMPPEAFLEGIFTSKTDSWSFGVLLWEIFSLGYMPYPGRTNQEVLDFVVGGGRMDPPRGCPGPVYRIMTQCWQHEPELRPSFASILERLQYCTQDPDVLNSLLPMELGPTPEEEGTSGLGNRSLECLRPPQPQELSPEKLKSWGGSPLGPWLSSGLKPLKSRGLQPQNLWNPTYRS

Consider `CN(C(=O)CN1CCOCC1)c1ccc2sc3c(-c4cccc5c(=O)cc(N6CC7CCC(C6)O7)oc45)cccc3c2c1` [NU5455], for which the inhibition at 1 µM is -13.1%.
